Tested on: beta lactamase
Test: Beta-lactamase inhibitor assay with nitrocefin probe (Example 1, FIG. 1)
Type: cell-based
Conditions: 4 μg/mL inhibitor, 0.25 mg/mL nitrocefin, 35° C., 4 hours
Procedure: By comparing the signal from an “inhibited” well to one containing the probe and microbes alone, the efficacy of the inhibitor may be tested.
Microbes were prepared by diluting colonies into saline to reach a McFarland value of 0.5, which was verified using a spectrophotometer. This was diluted 1:20 into saline and 50 μI of inoculum was added to wells of a 384-well plate. For each strain, 25 μI of solutions containing either 0.25 mg/mL nitrocefin alone (Nitro), 0.25 mg/mL nitrocefin and 4 μg/mL clauvulanate (Nitro Clay), or 0.25 mg/mL nitrocefin and 4 μg/mL tazobactam (Nitro Tazo) were added to duplicate wells. Inoculated plates were incubated at 35° C., shaking at 150 rpm for 4 hours. Absorbance was read at 490 nm and values shown in FIG. 1 are the absorbance in the indicated condition minus the absorbance from microbial inoculum alone without nitrocefin. A greater value indicates microbial ability to degrade nitrocefin, and thus, the presence of a beta lactamase. A reduction in absorbance value in the presence of an inhibitor indicates the beta lactamase present is sensitive to the inhibitor.

Row | SMILES | inhibitor activity against strains with known beta lactamases (reduction in nitrocefin absorbance at 490 nm)
1 | O=C(O)[C@H]1/C(=C/CO)O[C@@H]2CC(=O)N21 [clauvulanate] | active
2 | C[C@]1(Cn2ccnn2)[C@H](C(=O)O)N2C(=O)C[C@H]2S1(=O)=O [tazobactam] | active

Reference: US11835523B2, “Assays for improving automated antimicrobial susceptibility testing accuracy” (priority 2018, dated 2023)
